The values that follow come from PubChem BioAssay AID1380 (University of Pittsburgh Molecular Library Screening Center, 2008).

The source made the active and inactive calls. The rule behind the calls is not given here.

In this test the target is Cyclin-dependent kinase 7 (Homo sapiens) (UniProt P50613). In words: CDK7 kinase inhibition, dose response, counter-screen for PKD inhibitor project, biochemical, 57K library addition (AID 1380). The note with it: CDK7 biochemical kinase assay, counterscreen.
Sequence of Cyclin-dependent kinase 7 (Homo sapiens) (P50613 whole entry, looked up): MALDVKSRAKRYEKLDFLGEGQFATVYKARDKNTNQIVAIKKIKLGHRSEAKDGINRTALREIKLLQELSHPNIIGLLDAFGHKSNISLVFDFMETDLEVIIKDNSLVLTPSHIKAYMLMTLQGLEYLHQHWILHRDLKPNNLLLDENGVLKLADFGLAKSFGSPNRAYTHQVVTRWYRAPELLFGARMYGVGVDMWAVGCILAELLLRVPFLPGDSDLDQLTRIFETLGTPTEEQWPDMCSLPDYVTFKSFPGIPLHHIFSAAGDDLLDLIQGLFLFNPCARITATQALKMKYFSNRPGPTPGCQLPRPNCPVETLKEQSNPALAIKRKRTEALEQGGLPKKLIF

As to `C/C(=N\Nc1ncc(Cl)cc1Cl)c1ccccn1`, the IC50 is > 100 µM (inactive).

A word on the IC50: it is the concentration that gives 50% inhibition.
